The results in this text go back to ChEMBL document CHEMBL4251622, “Design, synthesis, and biological evaluation of polo-like kinase 1/eukaryotic elongation factor 2 kinase (PLK1/EEF2K) dual inhibitors for regulating breast cancer cells apoptosis and autophagy” (Eur J Med Chem, 2018).

For assay [1], the target named is T1, Eukaryotic elongation factor 2 kinase (Homo sapiens) (UniProt O00418).
T1 sequence (whole entry): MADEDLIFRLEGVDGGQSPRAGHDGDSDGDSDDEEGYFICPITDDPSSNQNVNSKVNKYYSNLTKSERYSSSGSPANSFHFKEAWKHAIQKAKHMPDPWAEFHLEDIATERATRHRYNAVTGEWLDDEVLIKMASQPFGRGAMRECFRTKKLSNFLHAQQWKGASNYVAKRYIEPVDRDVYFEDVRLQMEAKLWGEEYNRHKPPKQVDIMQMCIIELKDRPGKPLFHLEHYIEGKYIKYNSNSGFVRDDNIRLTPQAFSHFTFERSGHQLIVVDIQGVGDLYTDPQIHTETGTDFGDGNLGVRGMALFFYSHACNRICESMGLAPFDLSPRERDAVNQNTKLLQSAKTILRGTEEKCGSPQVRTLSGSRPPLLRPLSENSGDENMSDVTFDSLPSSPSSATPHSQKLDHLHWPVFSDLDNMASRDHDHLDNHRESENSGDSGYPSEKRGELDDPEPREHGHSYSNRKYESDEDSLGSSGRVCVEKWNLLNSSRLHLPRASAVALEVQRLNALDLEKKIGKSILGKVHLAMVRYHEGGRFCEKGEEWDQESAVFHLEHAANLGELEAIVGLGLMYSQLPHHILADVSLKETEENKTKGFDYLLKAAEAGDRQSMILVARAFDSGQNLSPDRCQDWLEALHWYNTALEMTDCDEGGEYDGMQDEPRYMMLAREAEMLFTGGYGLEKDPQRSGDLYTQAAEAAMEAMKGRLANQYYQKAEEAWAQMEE
Description: Inhibition of GST-tagged EEF2K (unknown origin) at 20 uM using biotinylated EEF2 peptide substrate by HTRF assay relative to control.

Assay [2] has as its target Serine/threonine-protein kinase PLK1 (Homo sapiens, UniProt P53350). In words: Inhibition of full length human PLK1 at 20 uM using casein as substrate after 40 mins in presence of [gamma-33P]-ATP by radiometric assay relative to control.
For the next assay, the system named is BT-483. Description: Cytotoxicity against human BT-483 cells after 24 hrs by MTT assay. The assay is classed as functional, cell-based. As to conditions: BT-483, 24 h. In general terms: Tetrazolium dyes change colour on reduction, which living cells bring about.
In a further assay the test system is MCF7. Description: Cytotoxicity against human MCF7 cells after 24 hrs by MTT assay. The assay is classed as functional, cell-based. As to conditions: MCF7, 24 h.
For a further assay, the system named is ZR-75-1. In words: Cytotoxicity against human ZR-75-1 cells after 24 hrs by MTT assay. The assay is classed as functional, cell-based.
The subject of the next assay is MDA-MB-468. In words: Cytotoxicity against human MDA-MB-468 cells after 24 hrs by MTT assay. The assay is classed as functional, cell-based.
A further assay relates to SK-BR-3. In words: Cytotoxicity against human SKBR3 cells after 24 hrs by MTT assay. The assay is classed as functional, cell-based.
The test system of another assay is BT-474. In words: Cytotoxicity against human BT474 cells after 24 hrs by MTT assay. The assay is classed as functional, cell-based.
In the next assay the test system is MDA-MB-231. Description: Cytotoxicity against human MDA-MB-231 cells after 24 hrs by MTT assay. The assay is classed as functional, cell-based.

pIC50: −log10 of the molar value. Calls of active or inactive are those of the source. No cut-off for these calls is given here. Some results are limits rather than exact numbers.

Sequence of Serine/threonine-protein kinase PLK1 (P53350 whole entry): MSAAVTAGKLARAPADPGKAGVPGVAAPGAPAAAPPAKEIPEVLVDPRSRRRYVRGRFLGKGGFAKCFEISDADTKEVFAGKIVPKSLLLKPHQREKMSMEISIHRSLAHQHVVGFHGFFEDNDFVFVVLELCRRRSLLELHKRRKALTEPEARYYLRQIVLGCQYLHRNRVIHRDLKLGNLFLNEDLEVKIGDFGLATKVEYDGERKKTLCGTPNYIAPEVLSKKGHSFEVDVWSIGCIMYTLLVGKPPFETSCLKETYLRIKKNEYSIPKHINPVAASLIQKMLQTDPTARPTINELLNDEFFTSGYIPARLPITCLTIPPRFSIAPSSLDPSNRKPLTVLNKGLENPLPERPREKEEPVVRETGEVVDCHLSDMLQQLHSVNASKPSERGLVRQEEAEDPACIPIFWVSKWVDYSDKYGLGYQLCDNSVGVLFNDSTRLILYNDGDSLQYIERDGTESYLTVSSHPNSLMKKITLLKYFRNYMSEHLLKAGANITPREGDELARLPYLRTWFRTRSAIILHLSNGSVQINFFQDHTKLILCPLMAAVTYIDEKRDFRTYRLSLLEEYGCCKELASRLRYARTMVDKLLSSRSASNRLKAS

Turning to `CCNc1cc(-c2ccc(NC(=O)Nc3ccc(C(F)(F)F)cc3)cc2F)ccn1`, the inhibition was 41.2% in [1] and 55.8% in assay [2]. Besides, the pIC50 in the assay with BT-483 was 4.57; in the assay with MCF7, 5.10.
The like results for `CCNc1cc(-c2ccc(NC(=O)Nc3cccc(Cl)c3)cc2OC)ccn1` were, in that order, 30.6%, 46.4%, 4.60 and 5.13.
The like results for `CCNc1cc(-c2ccc(NC(=O)Nc3ccc(C(F)(F)F)cc3)cc2C)ccn1` were, in that order, 55.3%, 54.8%, 4.71 and 5.16.
Regarding `CCCNc1cc(-c2ccc(NC(=O)Nc3cccc(Cl)c3)cc2C(F)(F)F)ccn1`, the inhibition in [1] stood at 38.2%; in assay [2] it was 63%. In addition, the figures for the negative-log IC50 (pIC50) in the assay with BT-483 and in the assay with MCF7 were 4.73 and 5.08, respectively.
On the same counts, the results for `CCNc1cc(-c2ccc(NC(=O)Nc3cccc(Cl)c3)cc2C)ccn1` are 73.4%, 82.7%, 4.78 and 5.38.
As to `CCNc1cc(-c2ccc(NC(=O)Nc3cccc4ccccc34)cc2C(F)(F)F)ccn1`, the values for the inhibition in assay [1] and in [2] were -4.29% and 54.1%, respectively. The pIC50 in the assay on BT-483 was under 4.52; with MCF7 it was 4.79.
The like results for `O=C(Nc1cccc(Cl)c1)Nc1ccc(-c2ccnc(NCC3CC3)c2)c(C(F)(F)F)c1` were, in that order, 27.8%, 63.8%, under 4.52 and 4.76.
The like results for `O=C(Nc1ccc(C(F)(F)F)cc1)Nc1ccc(-c2ccnc(NCC3CC3)c2)c(C(F)(F)F)c1` were, in that order, 15.1%, 53.4%, under 4.52 and 4.81.
The like results for `CCNc1cc(-c2ccc(NC(=O)Nc3c(C)cccc3C)cc2C)ccn1` were, in that order, 8.7%, 42.1%, under 4.52 and 5.10.
`CCNc1cc(-c2ccc(NC(=O)Nc3ccc(OC)cc3)cc2F)ccn1`: the inhibition in assay [1] was 34.4%; in [2], 47.1%. Besides, the negative logarithm of the IC50 (pIC50) in the assay on BT-483 was 4.71; in the assay with MCF7, 4.85.
On the same counts, the results for `CCNc1cc(-c2ccc(NC(=O)Nc3cc(C(F)(F)F)cc(C(F)(F)F)c3)cc2C(F)(F)F)ccn1` are 37.2%, 66.1%, under 4.52 and 5.22.
On the same counts, the results for `CCNc1cc(-c2ccc(NC(=O)Nc3cccc(Cl)c3)cc2F)ccn1` are 52.5%, 72.7%, 4.73 and 5.16.
The like results for `CCNc1cc(-c2ccc(NC(=O)Nc3ccccc3Cl)cc2OC)ccn1` were, in that order, 6.4%, 53.6%, under 4.52 and 5.00.
Regarding `CCNc1cc(-c2ccc(NC(=O)Nc3ccc(C(F)(F)F)cc3)cc2OC)ccn1`, the values for the inhibition in assay [1] and in assay [2] were 34.6% and 40.7%, respectively. Besides, the results for the negative logarithm of the IC50 (pIC50) in the assay on BT-483 and in the assay with MCF7 were 4.59 and 4.71, respectively.
On to `CCNc1cc(-c2ccc(NC(=O)Nc3ccc(OC)cc3)cc2C)ccn1`, for which the inhibition was 33.4% in assay [1] and 45.8% in assay [2]. Also, the negative logarithm of the IC50 (pIC50) was 4.59 in the assay on BT-483 and 5.00 with MCF7.
For `CCNc1cc(-c2ccc(NC(=O)Nc3ccc(OC)cc3)cc2OC)ccn1`, the inhibition in assay [1] was 9%; in assay [2], 31.1%. Also, the pIC50 with BT-483 is under 4.52; in the assay on MCF7, 4.76.
Take `CCCNc1cc(-c2ccc(NC(=O)Nc3ccc(C(F)(F)F)cc3)cc2C(F)(F)F)ccn1`: the inhibition was determined as 33.3% in assay [1] and 51.3% in assay [2]. Further, the pIC50 in the assay with BT-483 was 4.73; with MCF7, 5.11.
On the same counts, the results for `CCNc1cc(-c2ccc(NC(=O)Nc3ccc(C)cc3)cc2C(F)(F)F)ccn1` are 37.9%, 42.6%, 4.57 and 5.02.
On to `CC[C@@H]1C(=O)N(C)c2cnc(Nc3ccc(C(=O)NC4CCC(N5CCN(CC6CC6)CC5)CC4)cc3OC)nc2N1C(C)C` (some centres not stated), for which the result in the assay with ZR-75-1, with MDA-MB-468, with SK-BR-3, in the assay with BT-474 and with MDA-MB-231 was Active.
`CCNc1cc(-c2ccc(NC(=O)Nc3c(C)cccc3C)cc2OC)ccn1`: the inhibition in assay [2] was 54.4%. The negative logarithm of the IC50 (pIC50) with BT-483 is under 4.52; in the assay with MCF7, 5.03.
On to `CCNc1cc(-c2ccc(NC(=O)Nc3c(C)cccc3C)cc2C(F)(F)F)ccn1`, for which the inhibition in assay [1] came out at 44%; in assay [2], 59.2%. Moreover, the negative logarithm of the IC50 (pIC50) in the assay on BT-483 was 4.66; in the assay with MCF7, 5.16.
Take `CCNc1cc(-c2ccc(NC(=O)Nc3ccccc3Cl)cc2C)ccn1`: the results for the inhibition in [1] and in [2] were 21.7% and 49.2%, respectively. Also, the pIC50 in the assay with BT-483 was under 4.52; in the assay on MCF7, 5.08.
Take `CCNc1cc(-c2ccc(NC(=O)Nc3ccc(C(F)(F)F)cc3)cc2C(F)(F)F)ccn1`: the inhibition in assay [1] came out at 76.3%; in assay [2] it was 82.9%. Moreover, the pIC50 with BT-483 is 4.79; in the assay on MCF7, 5.62.
The like results for `CCNc1cc(-c2ccc(NC(=O)Nc3ccccc3Cl)cc2C(F)(F)F)ccn1` were, in that order, 53.6%, 71.6%, 4.68 and 5.43.
On to `CCNc1cc(-c2ccc(NC(=O)Nc3ccc(C)cc3)cc2C)ccn1`, for which the inhibition in assay [1] is 35.4%; in [2] it was 47.5%. Also, the pIC50 is 4.66 in the assay with BT-483 and 5.04 in the assay with MCF7.
On the same counts, the results for `CCNc1cc(-c2ccc(NC(=O)Nc3ccc(OC)cc3)cc2C(F)(F)F)ccn1` are 51.3%, 62.1%, 4.75 and 5.24.
Take `CCNc1cc(-c2ccc(NC(=O)Nc3cccc4ccccc34)cc2C)ccn1`: in [2], the inhibition came out at 35.3%. For the same compound, the pIC50 in the assay with BT-483 is under 4.52; with MCF7, 4.81.

One may read the inhibition as the change of the read-out against control, counted positive when it falls. The pIC50 is the negative decadic logarithm of the IC50, by convention in mol/L. Read a low pIC50 as a high IC50.
